The experiment concerns HeLa cells. In words: cytotoxicity by crystal violet staining. Type of experiment: cell-based. To be noted: 40 h. The protocol: Seven of the compounds according to the invention were selected for biological tests. Their cytotoxicity was assessed using crystal violet staining as adapted from standard procedure^[31]. Briefly, HeLa cells were seeded on 96-well plates, treated with the given concentrations of the selected compound, and exposed or not to the pulse protocol of illumination with light at 390 nm (pulses of 75 ms every 15 s). After 40 h cells were stained with crystal violet solution (0.5% crystal violet in 20% methanol) for 10 min. Unbound crystal violet was removed by rinsing with distilled water and cells were air-dried. Crystal violet was subsequently eluted from cells with 0.1 M sodium citrate in 50% ethanol. The absorbance of crystal violet is proportional to the cell number and was determined at 590 nm with a FLUOstar Omega microplate reader (BMG Labtech).
Each compound was tested at 6 doses: 100 nM, 500 nM, 1 μM, 2 μM, 5 μM and 10 μM. In order to ensure their solubility in the cell culture media, DMSO was used as a co-solvent, and to provide comparability between all samples the volume of DMSO was adjusted to obtain its final concentration as 1% in the cell culture media for all the compounds at all concentrations tested.
Results presented in Table 4 below are expressed as a fold growth relative to the control growth of the cells treated only with a co-solvent (1% DMSO), and are represented as a mean value from triplicates coming from a representative experiment.

Where [1] appears, read: 100 nM, 390 nm (75 ms every 15 s).
Setting [2] is: 500 nM, 390 nm (75 ms every 15 s).
[3] abbreviates: 1 μM, 390 nm (75 ms every 15 s).
Setting [4] is: 2 μM, 390 nm (75 ms every 15 s).
The mark [5] stands for this setting: 5 μM, 390 nm (75 ms every 15 s).
The mark [6] stands for this setting: 10 μM, 390 nm (75 ms every 15 s).

Counter-ions that a name gives are not always drawn.

On to `COc1ccc(N=Nc2cc(OC)c(OC)c(OC)c2)cc1OC(=O)N1CCCCC1CNC(=O)[C@@H](N)CC(C)C` (stereo partly drawn) [I.10, (2-methoxy 5-((3,4,5-trimethoxyphenyl)diazenyl)phenyl) 2-((L-leucinamido)methyl)piperidine 1-carboxylate 2,2,2-trifluoroacetate salt], for which the mean fold growth under setting [1] worked out at 0.986 fold; the mean fold growth (100 nM, Dark) is recorded as 0.95 fold; the mean fold growth under setting [2] is 0.945 fold; the mean fold growth (500 nM, Dark) is 0.99 fold; the mean fold growth under setting [3] stood at 0.387 fold; the mean fold growth (1 μM, Dark) turned out to be 0.92 fold. The mean fold growth reads like this: under setting [4], 0.357 fold; (2 μM, Dark) 0.90 fold; under setting [5], 0.217 fold; (5 μM, Dark) 0.99 fold; under setting [6], 0.293 fold; (10 μM, Dark) 0.78 fold.
Consider `COc1ccc(N=Nc2cc(OC)c(OC)c(OC)c2)cc1NC(=O)[C@@H](N)CO` [I.20, (2-methoxy 5-((3,4,5-trimethoxyphenyl)diazenyl)phenyl)) 1-L-serinamide 2,2,2-trifluoroacetate salt], for which the mean fold growth reads like this: under setting [1], 1.09 fold; (100 nM, Dark) 0.99 fold; under setting [2], 1.10 fold; (500 nM, Dark) 1.11 fold; under setting [3], 1.00 fold; (1 μM, Dark) 1.12 fold. Moreover, the mean fold growth under setting [4] came to 0.96 fold; the mean fold growth (2 μM, Dark) is 1.10 fold; the mean fold growth under setting [5] is recorded as 0.68 fold; the mean fold growth (5 μM, Dark) is listed as 1.03 fold; the mean fold growth under setting [6] is listed as 0.51 fold; the mean fold growth (10 μM, Dark) turned out to be 1.01 fold.

The values are drawn from patent US20170051149A1, “AZOARYLS AS REVERSIBLY MODULATABLE TUBULIN INHIBITORS” (ECOLE NORMALE SUPERIEURE DE LYON, priority 2014, published 2017).
